Assay results reported in US11542240B2, “STK19 inhibitors for treatment of cancer” (TRUSTEES OF BOSTON UNIVERSITY, priority 2018, dated 2023).
Read-outs that look alike come from different tables or passages of the source.

Experiments:
Experiment in all cases: biochemical
Assay type in all cases: binding
[1] = biological target: panel of 468 diverse kinases (Homo sapiens, UniProt Q9NYL2); details: ZAK; 1000 nM; read-out: Percent Control
[2] = biological target: panel of 468 diverse kinases (Homo sapiens, UniProt Q9UQB9); details: AURKC; 1000 nM; read-out: Percent Control
[3] = biological target: panel of 468 diverse kinases (Homo sapiens, UniProt O14936); details: CASK; 1000 nM; read-out: Percent Control
[4] = biological target: panel of 468 diverse kinases (Homo sapiens, UniProt P53667); details: LIMK1; 1000 nM; read-out: Percent Control
[5] = biological target: panel of 468 diverse kinases (Homo sapiens, UniProt P49336); details: CDK8; 1000 nM; read-out: Percent Control
[6] = biological target: panel of 468 diverse kinases (Homo sapiens, UniProt Q8TD08); details: ERK8; 1000 nM; read-out: Percent Control
[7] = biological target: panel of 468 diverse kinases (Homo sapiens, UniProt P78368); details: CSNK1G2; 1000 nM; read-out: Percent Control
[8] = biological target: panel of 468 diverse kinases (Homo sapiens, UniProt Q9BVS4); details: RIOK2; 1000 nM; read-out: Percent Control
[9] = biological target: panel of 468 diverse kinases (Homo sapiens, UniProt P22607, G697C); details: FGFR3(G697C); 1000 nM; read-out: Percent Control
[10] = biological target: panel of 468 diverse kinases (Homo sapiens, UniProt Q9Y2I7); details: PIKFYVE; 1000 nM; read-out: Percent Control
[11] = biological target: panel of 468 diverse kinases (Homo sapiens, UniProt O75747); details: PIK3C2G; 1000 nM; read-out: Percent Control
[12] = biological target: panel of 468 diverse kinases (Homo sapiens, UniProt Q9BQI3); details: EIF2AK1; 1000 nM; read-out: Percent Control
[13] = biological target: panel of 468 diverse kinases (Homo sapiens, UniProt P09619); details: PDGFRB; 1000 nM; read-out: Percent Control
[14] = biological target: panel of 468 diverse kinases (Homo sapiens, UniProt P52333); details: JAK3(JH1domain-catalytic); 1000 nM; read-out: Percent Control
[15] = biological target: panel of 468 diverse kinases (Homo sapiens, UniProt P53779); details: JNK3; 1000 nM; read-out: Percent Control
[16] = biological target: panel of 468 diverse kinases (Homo sapiens, UniProt P54756); details: EPHA5; 1000 nM; read-out: Percent Control
[17] = biological target: panel of 468 diverse kinases (Homo sapiens, UniProt Q9UK32); details: 1000 nM, read-out: Percent Control
[18] = biological target: panel of 468 diverse kinases (Homo sapiens, UniProt P00519); details: 1000 nM, read-out: Percent Control
[19] = biological target: panel of 468 diverse kinases (Homo sapiens, UniProt O96017); details: CHEK2; 1000 nM; read-out: Percent Control
[20] = biological target: panel of 468 diverse kinases (Homo sapiens, UniProt Q04759); details: PRKCQ; 1000 nM; read-out: Percent Control
[21] = biological target: panel of 468 diverse kinases (Homo sapiens, UniProt P29322); details: EPHA8; 1000 nM; read-out: Percent Control
[22] = biological target: panel of 468 diverse kinases (Homo sapiens, UniProt P42684); details: ABL2; 1000 nM; read-out: Percent Control
[23] = biological target: panel of 468 diverse kinases (Homo sapiens, UniProt P07949, V804L); details: RET(V804L); 1000 nM; read-out: Percent Control
[24] = biological target: panel of 468 diverse kinases (Homo sapiens, UniProt O15111); details: IKK-alpha; 1000 nM; read-out: Percent Control
[25] = biological target: panel of 468 diverse kinases (Homo sapiens, UniProt P07949, V804M); details: RET(V804M); 1000 nM; read-out: Percent Control
[26] = biological target: panel of 468 diverse kinases (Homo sapiens, UniProt Q9Y3S1); details: WNK2; 1000 nM; read-out: Percent Control
[27] = biological target: panel of 468 diverse kinases (Homo sapiens, UniProt Q9H2K8); details: TAOK3; 1000 nM; read-out: Percent Control
[28] = biological target: panel of 468 diverse kinases (Homo sapiens, UniProt Q9HBY8); details: SGK2; 1000 nM; read-out: Percent Control
[29] = biological target: panel of 468 diverse kinases (Homo sapiens, UniProt Q16539); details: p38-alpha; 1000 nM; read-out: Percent Control
[30] = biological target: panel of 468 diverse kinases (Homo sapiens, UniProt Q9H093); details: SNARK; 1000 nM; read-out: Percent Control
[31] = biological target: panel of 468 diverse kinases (Homo sapiens, UniProt Q8NFD2); details: ANKK1; 1000 nM; read-out: Percent Control

Sequence of panel of 468 diverse kinases (Homo sapiens, UniProt Q9Y2I7) (Q9Y2I7 2-2098 limits assumed): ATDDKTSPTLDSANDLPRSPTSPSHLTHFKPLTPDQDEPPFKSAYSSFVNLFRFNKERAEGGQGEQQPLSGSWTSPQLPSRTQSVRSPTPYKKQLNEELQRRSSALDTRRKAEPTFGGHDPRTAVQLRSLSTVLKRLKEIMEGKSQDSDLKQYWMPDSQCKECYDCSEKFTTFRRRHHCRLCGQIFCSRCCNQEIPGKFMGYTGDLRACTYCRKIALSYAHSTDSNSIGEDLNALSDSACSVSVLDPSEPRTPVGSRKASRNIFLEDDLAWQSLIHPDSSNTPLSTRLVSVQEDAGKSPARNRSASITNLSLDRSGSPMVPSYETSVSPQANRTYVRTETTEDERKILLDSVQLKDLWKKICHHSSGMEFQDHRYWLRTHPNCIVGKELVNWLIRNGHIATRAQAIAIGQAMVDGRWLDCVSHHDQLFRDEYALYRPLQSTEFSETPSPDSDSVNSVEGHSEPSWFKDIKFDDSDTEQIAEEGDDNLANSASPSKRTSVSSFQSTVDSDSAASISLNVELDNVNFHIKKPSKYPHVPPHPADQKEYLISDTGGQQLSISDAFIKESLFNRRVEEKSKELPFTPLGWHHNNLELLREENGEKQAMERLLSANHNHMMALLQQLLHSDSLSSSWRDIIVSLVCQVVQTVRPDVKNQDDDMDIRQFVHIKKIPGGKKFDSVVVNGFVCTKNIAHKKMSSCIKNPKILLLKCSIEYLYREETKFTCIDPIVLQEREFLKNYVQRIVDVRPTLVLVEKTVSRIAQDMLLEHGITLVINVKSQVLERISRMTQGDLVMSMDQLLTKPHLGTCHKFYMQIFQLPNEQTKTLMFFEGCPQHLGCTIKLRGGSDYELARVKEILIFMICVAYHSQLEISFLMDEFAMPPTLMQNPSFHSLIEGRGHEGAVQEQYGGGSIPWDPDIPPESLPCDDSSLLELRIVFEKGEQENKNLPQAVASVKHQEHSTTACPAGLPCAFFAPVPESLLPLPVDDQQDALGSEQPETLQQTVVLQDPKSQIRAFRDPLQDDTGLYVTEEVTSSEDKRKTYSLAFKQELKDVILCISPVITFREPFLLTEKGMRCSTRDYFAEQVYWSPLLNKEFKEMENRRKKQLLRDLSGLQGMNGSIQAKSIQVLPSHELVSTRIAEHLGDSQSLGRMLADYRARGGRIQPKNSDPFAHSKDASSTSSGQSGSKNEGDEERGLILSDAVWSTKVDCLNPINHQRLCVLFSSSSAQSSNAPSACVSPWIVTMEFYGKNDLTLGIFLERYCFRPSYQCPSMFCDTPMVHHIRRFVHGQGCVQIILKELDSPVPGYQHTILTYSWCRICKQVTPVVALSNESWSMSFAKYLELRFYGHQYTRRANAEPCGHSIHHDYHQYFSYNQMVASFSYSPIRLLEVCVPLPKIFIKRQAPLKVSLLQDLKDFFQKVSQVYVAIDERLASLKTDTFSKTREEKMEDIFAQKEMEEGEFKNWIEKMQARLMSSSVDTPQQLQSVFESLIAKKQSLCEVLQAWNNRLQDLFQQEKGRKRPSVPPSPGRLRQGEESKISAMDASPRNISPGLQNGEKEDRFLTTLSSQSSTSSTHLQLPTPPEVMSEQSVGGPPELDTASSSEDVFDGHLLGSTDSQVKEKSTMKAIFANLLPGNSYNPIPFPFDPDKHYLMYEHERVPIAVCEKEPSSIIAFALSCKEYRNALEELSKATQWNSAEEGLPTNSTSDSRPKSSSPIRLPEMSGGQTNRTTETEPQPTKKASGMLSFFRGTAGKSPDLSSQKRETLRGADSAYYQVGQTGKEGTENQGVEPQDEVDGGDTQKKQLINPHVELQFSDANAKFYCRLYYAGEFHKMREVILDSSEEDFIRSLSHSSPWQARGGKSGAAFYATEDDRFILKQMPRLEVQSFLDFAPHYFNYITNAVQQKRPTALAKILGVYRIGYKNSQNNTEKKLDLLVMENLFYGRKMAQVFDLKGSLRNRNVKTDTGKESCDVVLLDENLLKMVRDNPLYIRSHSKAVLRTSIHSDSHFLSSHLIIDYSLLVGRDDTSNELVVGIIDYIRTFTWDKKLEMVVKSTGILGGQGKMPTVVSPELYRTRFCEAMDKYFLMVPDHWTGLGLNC
Sequence of panel of 468 diverse kinases (Homo sapiens, UniProt P07949, V804L) (P07949 29-1114 V804L limits assumed): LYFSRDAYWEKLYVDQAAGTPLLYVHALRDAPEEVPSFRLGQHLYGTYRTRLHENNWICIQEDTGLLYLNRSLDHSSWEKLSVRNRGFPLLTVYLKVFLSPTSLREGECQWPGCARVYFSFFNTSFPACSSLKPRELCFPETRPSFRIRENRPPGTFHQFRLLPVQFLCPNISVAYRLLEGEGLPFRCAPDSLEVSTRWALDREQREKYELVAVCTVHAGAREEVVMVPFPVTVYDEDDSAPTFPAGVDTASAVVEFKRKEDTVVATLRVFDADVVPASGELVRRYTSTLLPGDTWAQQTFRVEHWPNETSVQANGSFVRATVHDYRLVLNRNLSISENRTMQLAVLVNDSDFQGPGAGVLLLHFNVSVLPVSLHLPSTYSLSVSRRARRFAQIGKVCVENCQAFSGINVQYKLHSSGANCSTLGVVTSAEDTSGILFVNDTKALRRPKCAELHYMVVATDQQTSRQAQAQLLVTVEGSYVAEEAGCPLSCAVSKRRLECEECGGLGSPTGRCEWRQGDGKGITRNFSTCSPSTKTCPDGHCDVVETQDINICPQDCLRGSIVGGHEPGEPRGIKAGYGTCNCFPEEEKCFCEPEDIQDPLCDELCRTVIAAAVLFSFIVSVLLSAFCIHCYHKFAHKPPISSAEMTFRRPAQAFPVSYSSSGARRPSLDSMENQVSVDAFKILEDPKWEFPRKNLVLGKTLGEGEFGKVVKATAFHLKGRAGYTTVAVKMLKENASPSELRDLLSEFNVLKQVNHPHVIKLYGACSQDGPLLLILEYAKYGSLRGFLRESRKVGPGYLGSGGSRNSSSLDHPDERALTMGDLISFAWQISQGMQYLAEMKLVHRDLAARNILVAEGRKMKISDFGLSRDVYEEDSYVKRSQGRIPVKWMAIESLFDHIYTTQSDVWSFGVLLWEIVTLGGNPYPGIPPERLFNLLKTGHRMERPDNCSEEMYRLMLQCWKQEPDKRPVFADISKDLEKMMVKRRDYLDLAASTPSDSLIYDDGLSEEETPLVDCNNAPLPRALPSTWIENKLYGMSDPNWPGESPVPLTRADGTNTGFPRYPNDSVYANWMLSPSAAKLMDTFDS
Sequence of panel of 468 diverse kinases (Homo sapiens, UniProt Q9NYL2) (Q9NYL2 2-800 limits assumed): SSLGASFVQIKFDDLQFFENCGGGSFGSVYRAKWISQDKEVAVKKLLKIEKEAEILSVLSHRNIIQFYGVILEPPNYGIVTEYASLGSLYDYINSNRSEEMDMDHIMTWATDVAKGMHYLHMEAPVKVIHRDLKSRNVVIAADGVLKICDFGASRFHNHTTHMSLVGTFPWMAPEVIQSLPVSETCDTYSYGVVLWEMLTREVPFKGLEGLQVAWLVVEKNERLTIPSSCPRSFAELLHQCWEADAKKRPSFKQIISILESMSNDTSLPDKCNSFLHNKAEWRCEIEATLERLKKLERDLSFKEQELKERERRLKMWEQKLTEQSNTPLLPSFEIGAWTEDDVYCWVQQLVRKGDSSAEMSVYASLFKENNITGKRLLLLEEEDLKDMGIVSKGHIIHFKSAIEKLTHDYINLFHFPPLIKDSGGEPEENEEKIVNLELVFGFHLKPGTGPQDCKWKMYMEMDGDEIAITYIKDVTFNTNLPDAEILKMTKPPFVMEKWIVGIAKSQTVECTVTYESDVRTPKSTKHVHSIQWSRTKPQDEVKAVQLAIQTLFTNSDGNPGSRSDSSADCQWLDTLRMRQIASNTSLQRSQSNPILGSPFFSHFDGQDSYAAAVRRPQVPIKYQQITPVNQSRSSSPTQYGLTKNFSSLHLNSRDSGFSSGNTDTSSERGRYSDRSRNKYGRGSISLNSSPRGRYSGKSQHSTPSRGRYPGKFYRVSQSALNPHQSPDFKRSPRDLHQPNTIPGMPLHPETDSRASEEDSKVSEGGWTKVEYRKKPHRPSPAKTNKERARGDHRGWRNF
Sequence of panel of 468 diverse kinases (Homo sapiens, UniProt P07949, V804M) (P07949 29-1114 V804M limits assumed): as the sequence (P07949 29-1114 V804L limits assumed) above, with L776M counted along it
Sequence of panel of 468 diverse kinases (Homo sapiens, UniProt P09619) (P09619 33-1106 limits assumed): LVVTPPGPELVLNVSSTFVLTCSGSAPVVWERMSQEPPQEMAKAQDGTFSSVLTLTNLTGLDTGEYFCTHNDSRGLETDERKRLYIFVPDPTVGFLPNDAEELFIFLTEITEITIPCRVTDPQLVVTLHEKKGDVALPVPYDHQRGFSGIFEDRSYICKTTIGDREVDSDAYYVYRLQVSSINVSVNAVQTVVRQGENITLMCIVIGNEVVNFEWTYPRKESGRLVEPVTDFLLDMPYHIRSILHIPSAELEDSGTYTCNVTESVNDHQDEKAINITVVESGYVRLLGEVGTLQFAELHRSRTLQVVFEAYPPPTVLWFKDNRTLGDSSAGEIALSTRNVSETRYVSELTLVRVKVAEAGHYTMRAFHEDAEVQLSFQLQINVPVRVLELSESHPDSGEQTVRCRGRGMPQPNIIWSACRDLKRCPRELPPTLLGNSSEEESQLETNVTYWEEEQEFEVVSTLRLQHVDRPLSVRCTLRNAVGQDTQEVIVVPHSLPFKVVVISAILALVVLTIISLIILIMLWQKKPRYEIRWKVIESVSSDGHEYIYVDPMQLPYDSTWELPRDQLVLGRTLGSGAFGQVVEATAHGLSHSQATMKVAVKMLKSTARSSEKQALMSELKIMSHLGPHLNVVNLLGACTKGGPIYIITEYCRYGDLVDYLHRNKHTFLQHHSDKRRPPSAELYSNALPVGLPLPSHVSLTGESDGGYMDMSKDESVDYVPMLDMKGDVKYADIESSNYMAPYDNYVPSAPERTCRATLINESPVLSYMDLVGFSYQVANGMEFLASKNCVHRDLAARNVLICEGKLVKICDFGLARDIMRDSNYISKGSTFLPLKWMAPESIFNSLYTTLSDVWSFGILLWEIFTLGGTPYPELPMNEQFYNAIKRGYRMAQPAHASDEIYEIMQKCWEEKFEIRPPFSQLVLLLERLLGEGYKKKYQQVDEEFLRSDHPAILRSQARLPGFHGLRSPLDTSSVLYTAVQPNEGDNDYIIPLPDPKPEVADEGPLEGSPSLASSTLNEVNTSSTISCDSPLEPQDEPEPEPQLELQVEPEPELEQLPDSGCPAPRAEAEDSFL

SMILES: COc1cc2nc(NC3CC3)nc(NC3CCN(C(C)C)CC3)c2cc1OC [Formula IV]
- remaining activity at 1 µM [1]: 100%
- remaining activity at 1 µM [2]: 100%
- remaining activity at 1 µM [3]: 60%
- remaining activity at 1 µM [4]: 100%
- remaining activity at 1 µM [5]: 96%
- remaining activity at 1 µM [6]: 83%
- remaining activity at 1 µM [7]: 86%
- remaining activity at 1 µM [8]: 80%
- remaining activity at 1 µM [9]: 100%
- remaining activity at 1 µM [10]: 96%
- remaining activity at 1 µM [11]: 100%
- remaining activity at 1 µM [12]: 73%
- remaining activity at 1 µM [13]: 93%
- remaining activity at 1 µM [14]: 70%
- remaining activity at 1 µM [15]: 100%
- remaining activity at 1 µM [16]: 86%
- remaining activity at 1 µM ([17]; RSK4(Kin.Dom.1-N-terminal)): 92%
- remaining activity at 1 µM ([17]; RSK4(Kin.Dom.2-C-terminal)): 82%
- remaining activity at 1 µM ([18]; ABL1-nonphosphorylated): 91%
- remaining activity at 1 µM ([18]; ABL1-phosphorylated): 88%
- remaining activity at 1 µM [19]: 100%
- remaining activity at 1 µM [20]: 86%
- remaining activity at 1 µM [21]: 93%
- remaining activity at 1 µM [22]: 98%
- remaining activity at 1 µM [23]: 75%
- remaining activity at 1 µM [24]: 80%
- remaining activity at 1 µM [25]: 100%
- remaining activity at 1 µM [26]: 58%
- remaining activity at 1 µM [27]: 54%
- remaining activity at 1 µM [28]: 64%
- remaining activity at 1 µM [29]: 100%
- remaining activity at 1 µM [30]: 57%
- remaining activity at 1 µM [31]: 50%
